Laboratory results published in patent US20110178052A1, “9-ALPHA ESTRATRIENE DERIVATIVES AS ER-BETA SELECTIVE LIGANDS FOR THE PREVENTION AND TREATMENT OF INTESTINAL CANCER” (Bayer Schering Pharma Aktiengesellschaft, priority 2008, published 2011).
“Also recorded” adds a separate entry of the source.

Tests used:
Type in all cases: in vivo, rat
OVX rats = test: Uterine wet weights of ovariectomized rats after 3 weeks of treatment; settings: for uterine wet weights: s.c., 3 weeks, E2 4 μg, GEN 10 mg, ALPHA 10 μg, BETA I 100 μg kg-1 b.wt d-1, vs OVX
Description: (§1) Post pubertal animals were ovariectomized (OVX) at the age of three months and weighing 200-220 g. After 14 days of endogenous hormonal decline the animals were treated with the test compounds or vehicle for three weeks. The animals were randomly allocated to treatment and vehicle groups (n=6). E2 (4 μg kg-1 b.wt d-1), GEN (10 mg kg-1 b.wt d-1), ALPHA (10 μg kg-1 b.wt d-1), BETA 1 (100 μg kg-1 b.wt d-1), BETA II (5-15-50 μg kg-1 b.wt d-1) and ICI (3 mg kg-1 b.wt d-1) were dissolved in dimethylsulfoxide (DMSO) (200 μl/KG b. wt/d) and corn oil (800 μl/KG b. wt/d) for s.c. administration.
(§2) Animals were sacrificed by decapitation after light anesthesia with CO2 inhalation. Uteri and intestinal tissues were prepared free of fat and were fixed in 4% formalin (for immunohistochemical analysis) and liquid nitrogen (for molecular biology). The uterine wet weights were determined.

active caspase-3 = test: Western Blot analysis of active caspase-3 in ileal mucosa; settings: for activation of caspase-3: OVX rats, s.c., 3 weeks, E2 4 μg, GEN 10 mg, ALPHA 10 μg, BETA I 100 μg kg-1 b.wt d-1
Description: as §1
(§3) Ileal mucosa and rectal colon were dissected from the animals and immediately stored in liquid nitrogen. Pooled frozen tissue (n=6 animals per group) was powdered and homogenized in a buffer (623.5 nM Tris pH 8 EDTA) containing enzyme inhibitors (5 mg/ml aprotonin, 5 mg/ml leupeptin, 1 mg/ml pepstatin-A, 5 mg/ml antipain, 100 mM pefac in 0.5 M EDTA, pH 8). Protein concentrations were determined by the method of Lowry (Dc Protein Assay, Bio-Rad). Equal amounts of sample (40 μg protein) were loaded on a Protean II ready Gel (Bio-Rad).
(§4) After electrophoresis and separation, samples were transferred onto nitrocellulose membranes and blocked with 5% BSA in Phosphate (100 mM)-buffered saline solution (pH 7.4) at room temperature for 2 hours. The immobilized proteins were quantitatively detected using specific antibodies for actin and GAPDH (A5060 and G8795, Sigma-Aldrich, Steinheim, Germany), PCNA Clone PC 10 (Dako, Glostrup, Denmark), M30 Cytodeath (ALX-804-590, Alexis, San Diego, Calif., USA) and active caspase-3 (557035, BD Pharmingen, Heidelberg, Germany).
(§5) Polyclonal Swine Anti-Rabbit Immunglobulins/HRP and Polyclonal Rabbit Anti-Mouse Immunglobulins/HRP (P0217 and P0260, Dako, Glostrup, Denmark) were used as species-specific HRP-conjugated secondary antibodies.
(§6) Blot signals were visualized by the chemoluminescent POD-Substrate (Lumi-Light Plus, Roche Diagnostics, Mannheim, Germany) and a Fluorchem Luminescent Imager (Alpha Innotech, CA, USA).
(§7) The protein bands were quantified by densitometry using ImageJ 1.38. To account for in homogenous protein loading of the slots we calculated the ratio of […] (PCNA, M30, active caspase-3).

PCNA [1] = test: Western Blot analysis of PCNA in ileal mucosa; settings: for PCNA expression of intestinal mucosa cells, Western Blot densitometric evaluation: OVX rats, s.c., 3 weeks, E2 4 μg, GEN 10 mg, ALPHA 10 μg, BETA I 100 μg kg-1 b.wt d-1
Description: as §1, §3, §4, §5, §6, §7

PCNA [2] = test: Immunohistochemical staining of PCNA in ileal mucosa cells; settings: OVX rats, s.c., 3 weeks; E2 4 μg, GEN 10 mg, ALPHA 10 μg, BETA I 100 μg kg-1 b.wt d-1
Description: as §1, §2
(§8) Formalin-fixed intestinal samples were embedded in paraffin, sliced with a microtome (7 μm sections). After deparaffinization, antigen retrieval was performed in an incubator for 20 h at 60° C. in 0.01 M citrate buffer pH 6.0.
Subsequently, endogenous peroxidases were blocked for 20 min. with 3% hydrogen peroxide and the slides were covered with a 0,25% Triton X-100 solution for 10 min.
The primary antibody, PCNA Clone PC10 (Dako, Glostrup, Denmark) was applied at dilutions of 1:100, respectively.
After 1 h incubation with the primary antibodies, samples were incubated with the secondary antibody: Polyclonal Goat Anti-Mouse Immunglobulins/Biotinylated (Dako, Glostrup, Denmark).
Afterwards the sections were covered with Streptavidin-biotinylated Horseradish Peroxidase Complex (GE Healthcare, Little Chalfont Buckinghamshire, UK) at a dilution of 1:400. The samples were developed with DAB for 10 min. For negative controls, slides were immunostained in the absence of the primary antibody.
Quantitative analysis was performed in complete crypts of normal mucosa. Brown nuclear staining was indicative of a positive PCNA signal.

PCNA mRNA = PCNA mRNA expression in the intestinal mucosa; settings: OVX rats, FIG. 3B
Description: as §1

PCNA [3] = test: Immunohistochemical staining of PCNA in colonic mucosa cells; settings: OVX rats, immunohistochemistry of rectal colonic cross sections; BETA II at 5 μg/Kg
Description: as §1, §2, §8
Subsequently, endogenous peroxidases were blocked for 20 min. with 3% hydrogen peroxide and the slides were covered with a 0,25% Triton X-100 solution for 10 min. […]
Quantitative analysis was performed in complete crypts of normal mucosa. […]

cytokeratin 18 (M 30) = test: Western Blot analysis of cytokeratin 18 cleavage (M30) in colon; settings: OVX rats, BETA II at 5 μg
Description: as §1
Ileal mucosa and rectal colon were dissected from the animals and immediately stored in liquid nitrogen. […] Protein concentrations were determined by the method of Lowry (Dc Protein Assay, Bio-Rad). Equal amounts of sample (40 μg protein) were loaded on a Protean II ready Gel (Bio-Rad).
After electrophoresis and separation, samples were transferred onto nitrocellulose membranes and blocked with 5% BSA in Phosphate (100 mM)-buffered saline solution (pH 7.4) at room temperature for 2 hours. The immobilized proteins were quantitatively detected using specific antibodies for actin and GAPDH (A5060 and G8795, Sigma-Aldrich, Steinheim, Germany), PCNA Clone PC 10 (Dako, Glostrup, Denmark), M30 Cytodeath (ALX-804-590, Alexis, San Diego, Calif., USA) and active caspase-3 (557035, BD Pharmingen, Heidelberg, Germany). […]

intestinal mucosa = test: Doses effect of BETA II on the intestinal mucosa
Description: as §1
BETA II was tested at 5, 15 and 50 μg kg-1 b.wt d-1.
Ileal mucosa and rectal colon were dissected from the animals and immediately stored in liquid nitrogen. […] Protein concentrations were determined by the method of Lowry (Dc Protein Assay, Bio-Rad). Equal amounts of sample (40 μg protein) were loaded on a Protean II ready Gel (Bio-Rad). […]
as §7

[4] = BETA I and BETA II at the same concentration (5 μg), pooled ileal tissue, FIG. 6
[5] = OVX rats co-treated with BETA I 100 μg and ICI 3 mg kg-1 b.wt d-1

Structure (SMILES) | uterine wet weights (OVX rats) | activation of caspase-3 (active caspase-3; pooled ileal tissue) | PCNA expression of intestinal mucosa cells, Western Blot densitometric evaluation (PCNA [1]; pooled ileal tissue) | PCNA protein expression, immunostaining of ileal cross sections (PCNA [2]) | PCNA mRNA Expression in the intestinal Mucosa (PCNA mRNA) | PCNA expression in colonic mucosa cells (PCNA [3]) | cleavage of cytokeratin 18 (M 30) in colonic mucosa cells (cytokeratin 18 (M 30)) | other results
C[C@]12CC[C@@H]3c4ccc(O)cc4CC[C@H]3[C@@H]1C[C@H]1OC(=O)C[C@]12O [ALPHA, 3,17-dihydroxy-19-nor-17α-pregna-1,3,5(10)-triene-21,16α-lactone] | strongly increased | moderately | elevation | slightly induced |  |  |  | 
C=C[C@@]12CCc3cc(O)ccc3[C@H]1CC[C@@]1(C)[C@H]2CC[C@@H]1O [BETA I, 8β-vinyl-estra-1,3,5(10)-triene-3,17β-diol] | no significant uterus stimulation | dramatically promoted | reduced | significantly reduced | diminished |  |  | 
C=C[C@]12CC[C@]3(C)[C@@H](F)[C@H](O)C[C@H]3[C@@H]1CCc1cc(O)ccc12 [BETA II, 17β-Fluoro-9α-vinyl-estra-1,3,5(10)-triene-3,16α-diol] |  |  |  |  |  | reduced | dramatically induced; also recorded: significant stimulation | effect on the uterus weight (OVX rats; BETA II at 5 μg/kg): does not show any measurable effect; activation of the caspase-3 compared with BETA I (active caspase-3; [4]): at a higher level; down regulation of the expression of the proliferation marker PCNA compared with BETA I (PCNA [1]; [4]): improved effect; activity relative to BETA I on effects regulating the intestinal homeostasis (intestinal mucosa; BETA II at 5 μg/kg vs BETA I): about 20 times; doses effect in the intestinal mucosa (intestinal mucosa; OVX rats, BETA II tested at 5, 15 and 50 μg kg-1 b.wt d-1): strongest effect at lowest tested dose of 5 μg/kg
C[C@]12CC[C@@H]3c4ccc(O)cc4CC[C@H]3[C@@H]1CC[C@@H]2O [E2, 17β-estradiol] | strong stimulation | remained on a low level | not affected | slightly induced |  |  | only marginally increased | 
O=c1c(-c2ccc(O)cc2)coc2cc(O)cc(O)c12 [GEN, 4′,5,7-trihydroxyisoflavone] | faint, although significant increase | moderately | reduced | significantly reduced | diminished | reduced |  | 
C[C@]12CC[C@@H]3c4ccc(O)cc4C[C@@H](CCCCCCCCC[S+]([O-])CCCC(F)(F)C(F)(F)F)[C@H]3[C@@H]1CC[C@@H]2O (some centres unmarked) [ICI] |  |  |  |  |  |  |  | effect of co-administration of ICI on pro-apoptotic effect (active caspase-3) of BETA I (active caspase-3; [5]): antogonization; effect of co-administration of ICI on anti-proliferative effect (PCNA) of BETA I (PCNA [1]; [5]): antogonization
